Assay results from patent US10526295B2, “Nuclear transport modulators and uses thereof” (Karyopharm Therapeutics Inc., priority 2015, dated 2020).

Columns and labels:
Type in all cases: cell-based
MM1S cells = test: MTT cell proliferation assay (MM1S); conditions: Homo sapiens, MM1.S; MM1S multiple myeloma cells; approximately 64-72 hours incubation; 1 nM to 30 μM
Protocol: (§1) The MTT cell proliferation assay was used to study the cytotoxic properties of the compounds. The assay was performed according to the method described by Roche Molecular Biochemicals, with minor modifications. The assay is based on the cleavage of the tetrazolium salt, MTT, in the presence of an electron-coupling reagent. The water-insoluble formazan salt produced must be solubilized in an additional step. Cells grown in a 96-well tissue culture plate were incubated with the MTT solution for approximately 4 hours. After this incubation period, a water-insoluble formazan dye formed. After solubilization, the formazan dye was quantitated using a scanning multi-well spectrophotometer (ELISA reader). […] The cells were seeded at 5,000-10,000 cells in each well of 96-well plate in 100 μL of fresh culture medium and were allowed to attach overnight. The stock solutions of the compounds were diluted in 100 μL cell culture medium to obtain eight concentrations of each test compound, ranging from 1 nM to 30 μM. […] All optical densities were measured at 490 nm using a Vmax Kinetic Microplate Reader (Molecular Devices). In most cases, the assay was performed in duplicate and the results were presented as a mean percent inhibition to the negative control±SE. The following formula was used to calculate the percent of inhibition: Inhibition (%)=(1−(ODo/OD))×100.
(§2) The compounds were tested against Z138, MM1S and 3T3 cells. The Z138 cell line is a mature B-cell acute lymphoblastic leukemia cell line derived from a patient with chronic lumphocytic leukemia. The MM1S cell line was established from the peripheral blood of a human multiple myeloma patient. 3T3 cells are standard fibroblast cells; they were originally isolated from Swiss mouse embryo tissue.

3T3 cells = test: MTT cell proliferation assay (3T3); conditions: Mus musculus, NIH3T3; 3T3 fibroblast cells; approximately 64-72 hours incubation; 1 nM to 30 μM
Protocol: as §1, §2

Z138 cells = test: MTT cell proliferation assay (Z138); conditions: Homo sapiens, Z-138, approximately 64-72 hours incubation, 1 nM to 30 μM
Protocol: as §1, §2

Row | SMILES | IC50 (MM1S cells) [nM] | IC50 (3T3 cells) [nM] | IC50 (Z138 cells) [nM]
1 | NC(=O)/C(=C/n1cnc(-c2cc(C(F)(F)F)cc(C(F)(F)F)c2)n1)c1ccc(S(=O)(=O)NC2CC2)cc1 [Compound 100, (E)-3-(3-(3,5-bis(trifluoromethyl)phenyl)-1H-1,2,4-triazol-1-yl)-2-(4-(N-cyclopropylsulfamoyl)phenyl)acrylamide] | < 100 | > 30000 | < 100
2 | NC(=O)/C(=C/n1cnc(-c2cc(C(F)(F)F)cc(C(F)(F)F)c2)n1)c1ccc(S(=O)(=O)C2CC2)cc1 [Compound 101, (E)-3-(3-(3,5-bis(trifluoromethyl)phenyl)-1H-1,2,4-triazol-1-yl)-2-(4-(cyclopropylsulfonyl)phenyl)acrylamide] | < 100 | < 100 | < 100
3 | CS(=O)(=O)Nc1cccc(/C(=C\n2cnc(-c3cc(C(F)(F)F)cc(C(F)(F)F)c3)n2)C(N)=O)c1 [Compound 102, (E)-3-(3-(3,5-bis(trifluoromethyl)phenyl)-1H-1,2,4-triazol-1-yl)-2-(3-(methylsulfonamido)phenyl)acrylamide] | 100 to 5000 | > 30000 | 100 to 5000
4 | CS(=O)(=O)c1ccc(/C(=C\n2cnc(-c3cc(C(F)(F)F)cc(C(F)(F)F)c3)n2)C(N)=O)cc1 [Compound 103, (E)-3-(3-(3,5-bis(trifluoromethyl)phenyl)-1H-1,2,4-triazol-1-yl)-2-(4-(methylsulfonyl)phenyl)acrylamide] | < 100 | > 30000 | 100 to 5000
5 | CN(C)S(=O)(=O)c1ccc(/C(=C\n2cnc(-c3cc(C(F)(F)F)cc(C(F)(F)F)c3)n2)C(N)=O)cc1 [Compound 104, (E)-3-(3-(3,5-bis(trifluoromethyl)phenyl)-1H-1,2,4-triazol-1-yl)-2-(4-(N,N-dimethylsulfamoyl)phenyl)acrylamide] | 100 to 5000 | > 30000 | 100 to 5000
6 | NC(=O)/C(=C/n1cnc(-c2cc(C(F)(F)F)cc(C(F)(F)F)c2)n1)c1ccc(S(=O)(=O)N2CCC(F)(F)CC2)cc1 [Compound 105, (E)-3-(3-(3,5-bis(trifluoromethyl)phenyl)-1H-1,2,4-triazol-1-yl)-2-(4-(4,4-difluoropiperidin-1-ylsulfonyl)phenyl)acrylamide] | < 100 | 100 to 5000 | < 100
7 | NC(=O)/C(=C/n1cnc(-c2cc(C(F)(F)F)cc(C(F)(F)F)c2)n1)c1ccc(S(=O)(=O)N2CCC(C(F)(F)F)CC2)cc1 [Compound 106, (E)-3-(3-(3,5-bis(trifluoromethyl)phenyl)-1H-1,2,4-triazol-1-yl)-2-(4-(4-(trifluoromethyl)piperidin-1-ylsulfonyl)phenyl)acrylamide] | 100 to 5000 | > 30000 | 100 to 5000
8 | NC(=O)/C(=C/n1cnc(-c2cc(C(F)(F)F)cc(C(F)(F)F)c2)n1)c1ccc(S(=O)(=O)N2CCC2)cc1 [Compound 107, (E)-2-(4-(azetidin-1-ylsulfonyl)phenyl)-3-(3-(3,5-bis(trifluoromethyl)phenyl)-1H-1,2,4-triazol-1-yl)acrylamide] | < 100 | 100 to 5000 | < 100
9 | NC(=O)/C(=C/n1cnc(-c2cc(C(F)(F)F)cc(C(F)(F)F)c2)n1)c1ccc(S(=O)(=O)N2CCOCC2)cc1 [Compound 108, (E)-3-(3-(3,5-bis(trifluoromethyl)phenyl)-1H-1,2,4-triazol-1-yl)-2-(4-(morpholinosulfonyl)phenyl)acrylamide] | < 100 | 100 to 5000 | 100 to 5000
10 | NC(=O)/C(=C/n1cnc(-c2cc(C(F)(F)F)cc(C(F)(F)F)c2)n1)c1ccc(S(=O)(=O)N2CCCCC2)cc1 [Compound 109, (E)-3-(3-(3,5-bis(trifluoromethyl)phenyl)-1H-1,2,4-triazol-1-yl)-2-(4-(piperidin-1-ylsulfonyl)phenyl)acrylamide] | 100 to 5000 | 100 to 5000 | 100 to 5000
11 | NC(=O)/C(=C/n1cnc(-c2cc(C(F)(F)F)cc(C(F)(F)F)c2)n1)c1ccc(S(=O)(=O)N2CC(F)C2)cc1 [Compound 110, (E)-3-(3-(3,5-bis(trifluoromethyl)phenyl)-1H-1,2,4-triazol-1-yl)-2-(4-(3-fluoroazetidin-1-ylsulfonyl)phenyl)acrylamide] | < 100 | 100 to 5000 | < 100
12 | NC(=O)/C(=C/n1cnc(-c2cc(C(F)(F)F)cc(C(F)(F)F)c2)n1)c1ccc(S(=O)(=O)N2CC(F)(F)C2)cc1 [Compound 111, (E)-3-(3-(3,5-bis(trifluoromethyl)phenyl)-1H-1,2,4-triazol-1-yl)-2-(4-(3,3-difluoroazetidin-1-ylsulfonyl)phenyl)acrylamide] | < 100 | 100 to 5000 | < 100
13 | NC(=O)/C(=C/n1cnc(-c2cc(C(F)(F)F)cc(C(F)(F)F)c2)n1)c1ccc(S(=O)(=O)N2CCCC2)cc1 [Compound 112, (E)-3-(3-(3,5-bis(trifluoromethyl)phenyl)-1H-1,2,4-triazol-1-yl)-2-(4-(pyrrolidin-1-ylsulfonyl)phenyl)acrylamide] | < 100 | 100 to 5000 | < 100
14 | NC(=O)/C(=C/n1cnc(-c2cc(C(F)(F)F)cc(C(F)(F)F)c2)n1)c1ccc(S(=O)(=O)N2CCC(F)(F)C2)cc1 [Compound 113, (E)-3-(3-(3,5-bis(trifluoromethyl)phenyl)-1H-1,2,4-triazol-1-yl)-2-(4-(3,3-difluoropyrrolidin-1-ylsulfonyl)phenyl)acrylamide] | < 100 | < 100 | < 100
15 | NC(=O)/C(=C/n1cnc(-c2cc(C(F)(F)F)cc(C(F)(F)F)c2)n1)c1ccc(S(=O)(=O)N2CCC(F)CC2)cc1 [Compound 114, (E)-3-(3-(3,5-bis(trifluoromethyl)phenyl)-1H-1,2,4-triazol-1-yl)-2-(4-(4-fluoropiperidin-1-ylsulfonyl)phenyl)acrylamide] | < 100 | < 100 | < 100
16 | CN1CCN(S(=O)(=O)c2ccc(/C(=C\n3cnc(-c4cc(C(F)(F)F)cc(C(F)(F)F)c4)n3)C(N)=O)cc2)CC1 [Compound 115, (E)-3-(3-(3,5-bis(trifluoromethyl)phenyl)-1H-1,2,4-triazol-1-yl)-2-(4-(4-methylpiperazin-1-ylsulfonyl)phenyl)acrylamide] | 100 to 5000 | 100 to 5000 | 100 to 5000
17 | CC1(C)CN(S(=O)(=O)c2ccc(/C(=C\n3cnc(-c4cc(C(F)(F)F)cc(C(F)(F)F)c4)n3)C(N)=O)cc2)CCO1 [Compound 116, (E)-3-(3-(3,5-bis(trifluoromethyl)phenyl)-1H-1,2,4-triazol-1-yl)-2-(4-(2,2-dimethylmorpholinosulfonyl)phenyl)acrylamide] | 100 to 5000 | 100 to 5000 | 100 to 5000
18 | NC(=O)/C(=C/n1cnc(-c2cc(C(F)(F)F)cc(C(F)(F)F)c2)n1)c1ccc(S(=O)(=O)N2CC[C@@H](F)C2)cc1 [Compound 117, (R,E)-3-(3-(3,5-bis(trifluoromethyl)phenyl)-1H-1,2,4-triazol-1-yl)-2-(4-(3-fluoropyrrolidin-1-ylsulfonyl)phenyl)acrylamide] | < 100 | 100 to 5000 | < 100
19 | NC(=O)/C(=C/n1cnc(-c2cc(C(F)(F)F)cc(C(F)(F)F)c2)n1)c1ccc(S(=O)(=O)N2CCCOCC2)cc1 [Compound 118, (E)-2-(4-(1,4-oxazepan-4-ylsulfonyl)phenyl)-3-(3-(3,5-bis(trifluoromethyl)phenyl)-1H-1,2,4-triazol-1-yl)acrylamide] | < 100 | 100 to 5000 | < 100
20 | NC(=O)/C(=C/n1cnc(-c2cc(C(F)(F)F)cc(C(F)(F)F)c2)n1)c1cccc(S(=O)(=O)N2CCOCC2)c1 [Compound 119, (E)-3-(3-(3,5-bis(trifluoromethyl)phenyl)-1H-1,2,4-triazol-1-yl)-2-(3-(morpholinosulfonyl)phenyl)acrylamide] | 100 to 5000 | > 30000 | 100 to 5000
21 | NC(=O)/C(=C/n1cnc(-c2cc(C(F)(F)F)cc(C(F)(F)F)c2)n1)c1cccc(S(=O)(=O)N2CCC(F)CC2)c1 [Compound 120, (E)-3-(3-(3,5-bis(trifluoromethyl)phenyl)-1H-1,2,4-triazol-1-yl)-2-(3-(4-fluoropiperidin-1-ylsulfonyl)phenyl)acrylamide] | 100 to 5000 | > 30000 | 100 to 5000
22 | NC(=O)/C(=C/n1cnc(-c2cc(C(F)(F)F)cc(C(F)(F)F)c2)n1)c1cccc(S(=O)(=O)N2CC(F)(F)C2)c1 [Compound 121, (E)-3-(3-(3,5-bis(trifluoromethyl)phenyl)-1H-1,2,4-triazol-1-yl)-2-(3-(3,3-difluoroazetidin-1-ylsulfonyl)phenyl)acrylamide] | 100 to 5000 | > 30000 | 100 to 5000
